According to ChEMBL document CHEMBL2385071, “Synthesis and biological investigation of coumarin piperazine (piperidine) derivatives as potential multireceptor atypical antipsychotics” (J Med Chem, 2013):

How the values were obtained:
[1] = target: 5-hydroxytryptamine receptor 2A (Rattus norvegicus, UniProt P14842); test: Displacement of [3H]ketanserin from 5HT2A receptor in rat cerebral cortex after 15 mins by liquid scintillation counting analysis; type: tissue-based
D(2) dopamine receptor [2] = target: D(2) dopamine receptor (Rattus norvegicus, UniProt P61169)
Chain of D(2) dopamine receptor (Rattus norvegicus, UniProt P61169) (P61169 whole entry): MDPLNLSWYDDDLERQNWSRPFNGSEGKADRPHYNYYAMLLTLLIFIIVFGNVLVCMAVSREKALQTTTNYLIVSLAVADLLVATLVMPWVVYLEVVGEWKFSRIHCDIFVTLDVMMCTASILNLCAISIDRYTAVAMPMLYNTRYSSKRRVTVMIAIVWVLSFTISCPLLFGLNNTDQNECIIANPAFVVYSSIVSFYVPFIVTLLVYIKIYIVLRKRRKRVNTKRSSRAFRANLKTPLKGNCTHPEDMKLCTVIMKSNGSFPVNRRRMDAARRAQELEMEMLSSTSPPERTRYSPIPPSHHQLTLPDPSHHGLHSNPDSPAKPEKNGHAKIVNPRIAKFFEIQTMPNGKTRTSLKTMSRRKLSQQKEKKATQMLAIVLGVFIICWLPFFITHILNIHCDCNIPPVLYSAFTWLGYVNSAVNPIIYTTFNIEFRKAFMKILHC

[3] = target: T1, 5-hydroxytryptamine receptor 1A (Rattus norvegicus, UniProt P19327); test: biochemical
T1 sequence (P19327 whole entry): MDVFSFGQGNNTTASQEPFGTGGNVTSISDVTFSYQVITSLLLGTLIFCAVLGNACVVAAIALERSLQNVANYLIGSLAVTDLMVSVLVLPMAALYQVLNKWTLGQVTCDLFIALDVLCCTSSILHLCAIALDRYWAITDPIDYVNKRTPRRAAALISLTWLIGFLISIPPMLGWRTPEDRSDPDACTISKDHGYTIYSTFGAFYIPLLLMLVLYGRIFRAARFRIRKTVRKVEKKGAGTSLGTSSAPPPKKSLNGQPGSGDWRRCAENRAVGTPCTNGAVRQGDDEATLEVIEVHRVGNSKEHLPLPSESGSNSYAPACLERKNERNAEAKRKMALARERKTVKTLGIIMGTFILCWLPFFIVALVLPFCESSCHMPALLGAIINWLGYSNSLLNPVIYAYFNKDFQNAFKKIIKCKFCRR
Description: Displacement of [3H]8-OH-DPAT from 5HT1A receptor in rat cerebral cortex after 30 mins by liquid scintillation counting analysis

D(2) dopamine receptor [4] = target: T2, D(2) dopamine receptor (Homo sapiens, UniProt P14416)
T2 sequence (P14416 whole entry): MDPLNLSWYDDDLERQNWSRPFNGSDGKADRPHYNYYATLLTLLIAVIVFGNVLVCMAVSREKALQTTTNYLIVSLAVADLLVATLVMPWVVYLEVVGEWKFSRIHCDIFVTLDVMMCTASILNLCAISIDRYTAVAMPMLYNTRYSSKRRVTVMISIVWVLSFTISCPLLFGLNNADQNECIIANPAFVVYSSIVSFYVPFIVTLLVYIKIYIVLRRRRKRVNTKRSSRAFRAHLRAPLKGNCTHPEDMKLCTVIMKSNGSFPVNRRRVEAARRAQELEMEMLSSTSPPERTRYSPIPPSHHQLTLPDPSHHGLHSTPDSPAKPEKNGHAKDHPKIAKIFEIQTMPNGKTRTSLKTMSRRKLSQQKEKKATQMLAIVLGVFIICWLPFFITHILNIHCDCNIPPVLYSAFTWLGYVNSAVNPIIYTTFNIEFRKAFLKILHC

D(2) dopamine receptor [5] = target: T2, D(2) dopamine receptor; test: Antagonist activity at dopamine D2 receptor (unknown origin) expressed in CHOK1 cells coexpressing Galpha15 assessed as inhibition of agonist-induced response at 10 uM incubated for 60 mins in incubator followed by 15 mins at room temperature by FLIPR assay relative to control; type: cell-based; settings: CHO-K1
Mus musculus [6] = test: Toxicity in po dosed mouse assessed as induction of catalepsy; type: organism-based; settings: in vivo
[7] = target: T3, 5-hydroxytryptamine receptor 2A (Homo sapiens, UniProt P28223); test: Antagonist activity at 5HT2A receptor (unknown origin) expressed in CHOK1 cells coexpressing Galpha15 assessed as inhibition of agonist-induced response at 10 uM incubated for 60 mins in incubator followed by 15 mins at room temperature by FLIPR assay relative to control; type: cell-based; settings: CHO-K1
T3 sequence (P28223 whole entry): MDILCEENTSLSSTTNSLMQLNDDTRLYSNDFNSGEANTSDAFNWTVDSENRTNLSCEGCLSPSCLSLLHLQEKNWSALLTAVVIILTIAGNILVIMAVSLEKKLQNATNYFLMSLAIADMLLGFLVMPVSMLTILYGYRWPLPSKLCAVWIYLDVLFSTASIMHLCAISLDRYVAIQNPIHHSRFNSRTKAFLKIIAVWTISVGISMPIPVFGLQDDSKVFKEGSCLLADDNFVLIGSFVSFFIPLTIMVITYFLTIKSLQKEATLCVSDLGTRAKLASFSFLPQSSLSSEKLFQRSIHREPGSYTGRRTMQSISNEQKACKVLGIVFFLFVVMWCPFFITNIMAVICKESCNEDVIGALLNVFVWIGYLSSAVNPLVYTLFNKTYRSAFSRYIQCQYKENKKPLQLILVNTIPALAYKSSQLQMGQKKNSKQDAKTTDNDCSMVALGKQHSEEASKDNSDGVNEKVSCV

[8] = target: T3, 5-hydroxytryptamine receptor 2A; test: Agonist activity at 5HT2A receptor (unknown origin) expressed in CHOK1 cells coexpressing Galpha15 at 10 uM by FLIPR assay relative to control; type: cell-based; settings: CHO-K1
in vivo [9] = settings: mouse, po
Description: Therapeutic Index, ratio of ED50 for catalepsy in mouse to ED50 for antipsychotic activity in po dosed mouse assessed as reduction in apomorphine-induced climbing behavior

Mus musculus [10] = species: Mus musculus; test: animal or person; settings: po
Description: Antipsychotic activity in po dosed mouse assessed as reduction in apomorphine-induced climbing behavior administered for 30 mins prior to apomorphine-challenge measured at 10 to 30 mins post-dose

Mus musculus [11] = species: Mus musculus; test: animal or person; settings: po; remark: listed apart in the source
in vivo [12] = settings: mouse, po; remark: listed apart in the source
D(2) dopamine receptor [13] = target: T2, D(2) dopamine receptor; test: Agonist activity at dopamine D2 receptor (unknown origin) expressed in CHOK1 cells coexpressing Galpha15 at 10 uM by FLIPR assay relative to control; type: cell-based; settings: CHO-K1

Chain of 5-hydroxytryptamine receptor 2A (Rattus norvegicus, UniProt P14842) (P14842 whole entry): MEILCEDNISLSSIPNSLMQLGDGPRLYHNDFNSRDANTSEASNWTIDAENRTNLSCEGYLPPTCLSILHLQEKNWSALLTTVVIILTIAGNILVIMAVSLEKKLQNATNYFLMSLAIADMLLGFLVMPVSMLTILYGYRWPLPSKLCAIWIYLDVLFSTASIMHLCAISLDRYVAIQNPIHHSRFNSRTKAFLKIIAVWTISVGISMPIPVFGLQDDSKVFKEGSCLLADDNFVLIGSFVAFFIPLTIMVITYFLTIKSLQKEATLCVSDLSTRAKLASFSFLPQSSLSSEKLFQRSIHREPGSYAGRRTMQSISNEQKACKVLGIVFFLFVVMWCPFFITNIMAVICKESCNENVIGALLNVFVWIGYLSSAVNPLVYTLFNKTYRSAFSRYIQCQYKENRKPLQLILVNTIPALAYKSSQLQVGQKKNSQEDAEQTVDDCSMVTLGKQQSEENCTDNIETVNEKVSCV

SMILES	Ki [1] [nM]	Ki (D(2) dopamine receptor [2]) [nM]	Ki [3] [nM]	further results
COc1ccccc1N1CCN(CCCCOc2ccc3c(C)cc(=O)oc3c2Cl)CC1	588	119	151	
Cc1cc(=O)oc2cc(OCCCCN3CCC(c4noc5cc(F)ccc45)CC3)c(Cl)cc12	10.6	> 10000	17.2	
OCCN1CCN(CCCN2c3ccccc3Sc3ccc(Cl)cc32)CC1 [PERPHENAZINE]				IC50 (D(2) dopamine receptor [4]): 0.3 nM; inhibition (D(2) dopamine receptor [5]): 100%
COc1ccccc1N1CCN(CCCCOc2ccc3c(CO)cc(=O)oc3c2)CC1	> 10000	> 10000	> 10000	
Cc1cc(=O)oc2cc(OCCCCN3CCC(C(=O)c4ccc(F)cc4)CC3)ccc12	257	182	165	
O=c1ccc2ccc(OCCCCN3CCC(c4noc5cc(F)ccc45)CC3)cc2o1	1460	44.9	553	
O=c1cc(-c2ccccc2)c2ccc(OCC(O)CN3CCC(c4noc5cc(F)ccc45)CC3)cc2o1 (configuration not stated)	1570	987	692	
O=c1cc(-c2ccc(F)cc2)c2ccc(OCCCCN3CCC(c4noc5cc(F)ccc45)CC3)cc2o1	> 10000	632	> 10000	
CN1CCN(C2=Nc3cc(Cl)ccc3Nc3ccccc32)CC1 [CLOZAPINE]				ED50 (Mus musculus [6]): 92.73 mg/kg
Cc1cc(=O)oc2cc(OCCCCN3CCN(c4nsc5ccccc45)CC3)ccc12	104	176	113	
CC(C)c1cc(=O)oc2cc(OCCCCN3CCC(c4noc5cc(F)ccc45)CC3)ccc12	> 10000	2350	> 10000	
COc1ccccc1N1CCN(CCCCOc2ccc3c(C(F)(F)F)cc(=O)oc3c2)CC1	810	> 10000	41.8	
CCCc1cc(=O)oc2cc(OCCCCN3CCC(c4noc5cc(F)ccc45)CC3)ccc12	30.8	3.9	410	
O=C(c1ccc(F)cc1)C1CCN(CCn2c(=O)[nH]c3ccccc3c2=O)CC1				inhibition [7]: 99.9%
COc1ccccc1N1CCN(CCCCOc2ccc3c(C)cc(=O)oc3c2C)CC1	941	844	112	
COc1ccccc1N1CCN(CCCCOc2ccc3c(-c4ccccc4)cc(=O)oc3c2)CC1	> 10000	> 10000	> 10000	
NCCc1c[nH]c2ccc(O)cc12				Activity [8]: 100%
COc1cccc(-c2cc(=O)oc3cc(OCCCCN4CCC(c5noc6cc(F)ccc56)CC4)ccc23)c1	> 10000	787	> 10000	
O=C(CCCN1CCC(O)(c2ccc(Cl)cc2)CC1)c1ccc(F)cc1 [HALOPERIDOL]				selectivity ratio (in vivo [9]): 2.44; ED50 (Mus musculus [10]): 0.09 mg/kg; ED50 (Mus musculus [6]): 0.22 mg/kg; ED50 (Mus musculus [11]): 0.19 mg/kg; selectivity ratio (in vivo [12]): 1.16
Cc1cc(=O)oc2cc(OCCCN3CCC(c4noc5cc(F)ccc45)CC3)ccc12	140	116	328	
Cc1cc(=O)oc2cc(OCCCCN3CCC(c4nc5ccccc5o4)CC3)ccc12	1550	> 10000	1390	
O=c1cc(CO)c2ccc(OCCCCN3CCC(c4noc5cc(F)ccc45)CC3)cc2o1	> 10000	> 10000	2160	

SMILES	Ki [1] [nM]	Ki (D(2) dopamine receptor [2]) [nM]	Ki [3] [nM]	further results
Cc1cc(=O)oc2cc(OC/C=C/CN3CCC(c4noc5cc(F)ccc45)CC3)ccc12	0.5	17.1	44.5	
O=c1cc(-c2cccs2)c2ccc(OCCCCN3CCC(c4noc5cc(F)ccc45)CC3)cc2o1	> 10000	2350	> 10000	
Cc1cc(=O)oc2cc(OCCCCCN3CCC(c4noc5cc(F)ccc45)CC3)ccc12	306	123	1720	
Cc1cccc(N2CCN(CCCCOc3ccc4c(C)cc(=O)oc4c3)CC2)c1C	259	1390	48.4	
Cc1cc(=O)oc2cc(OCCCCN3CCC(c4nc5ccccc5s4)CC3)ccc12	215	242	146	
Cc1cc(=O)oc2cc(OCCCCN3CCN(c4cccc(C(F)(F)F)c4)CC3)ccc12	157	143	15.6	
Cc1c(C)c2ccc(OCCCCN3CCC(c4noc5cc(F)ccc45)CC3)c(C)c2oc1=O	607	10.7	3070	
O=C1CC(c2ccccc2)c2ccc(OCCCCN3CCC(c4noc5cc(F)ccc45)CC3)cc2O1 (configuration not stated)	559	515	> 10000	
Cc1cc(=O)oc2cc(OCCCCN3CCN(c4ccccn4)CC3)ccc12	897	2820	102	
CCc1cc(=O)oc2cc(OCCCCN3CCC(c4noc5cc(F)ccc45)CC3)ccc12	51.3	1930	1470	
COc1ccccc1N1CCN(CCCCOc2ccc3c(C)c(C)c(=O)oc3c2)CC1	58.9	> 10000	> 10000	
COc1ccc(N2CCN(CCCCOc3ccc4c(C)cc(=O)oc4c3)CC2)cc1	1010	412	530	
COc1ccccc1N1CCN(CCCCOc2ccc3ccc(=O)oc3c2)CC1	1680	569	876	
Cc1cc(OCCCCN2CCC(c3noc4cc(F)ccc34)CC2)cc2oc(=O)cc(C)c12	549	459	18.9	
NCCc1ccc(O)c(O)c1				Activity (D(2) dopamine receptor [13]): 101%
Cc1ccc(S(=O)(=O)N2CCN(CCCCOc3ccc4c(C)cc(=O)oc4c3)CC2)cc1	> 10000	1590	1200	
COc1cccc(N2CCN(CCCCOc3ccc4c(C)cc(=O)oc4c3)CC2)c1	469	156	89.2	
O=c1cc(C2CC2)c2ccc(OCCCCN3CCC(c4noc5cc(F)ccc45)CC3)cc2o1	> 10000	> 10000	> 10000	
O=c1cc(C(F)(F)F)c2ccc(OCCCCN3CCC(c4noc5cc(F)ccc45)CC3)cc2o1	228	3010	42.9	
Cc1cc(=O)oc2cc(OCCCCN3CCN(c4cccc(Cl)c4Cl)CC3)ccc12	101	1870	11.5	
Cc1cc(=O)oc2cc(OCC(O)CN3CCC(c4noc5cc(F)ccc45)CC3)ccc12 (configuration not stated)	453	> 10000	517	
